From patent US9018388B2, “Pesticidal compositions and processes related thereto” (Dow AgroSciences LLC, priority 2012, dated 2015)

Assays:
[1] = tested on: Beet Armyworm (BAW) (Spodoptera exigua); experiment: Bioassay on beet armyworm (BAW), 128-well diet tray assay; type: in vivo; conditions: Spodoptera exigua; Beet armyworm, 50 μg/cm^2; read-out: % Mortality BAW 50 μg/cm^2
How it was run: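 Second-instar Spodoptera exigua larvae, one to five per well, on artificial diet treated with 50 μg/cm^2 compound in 90:10 acetone-water and dried, eight wells per compound. Held at 25 °C, 14:10 light-dark for five to seven days; percent mortality averaged over wells.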

[2] = tested on: Corn Earworm (CEW) (Helicoverpa zea); experiment: Bioassay on corn earworm (CEW), 128-well diet tray assay; type: in vivo; conditions: Helicoverpa zea; Corn earworm, 50 μg/cm^2; read-out: % Mortality CEW 50 μg/cm^2
How it was run: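 Second-instar Helicoverpa zea larvae (one to five per well) placed on artificial diet treated with 50 μg/cm^2 compound in 90:10 acetone-water, dried, eight wells per compound. Held at 25 °C, 14:10 light-dark, five to seven days; percent mortality averaged over wells.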

[3] = tested on: Green Peach Aphid (GPA) (Myzus persicae); experiment: Bioassay on green peach aphid (GPA), foliar spray on cabbage seedlings; type: in vivo; conditions: 72 h, read-out: % Mortality GPA 200 ppm
Protocol: Bioassays on Green Peach Aphid (“GPA”) (Myzus persicae)
Certain molecules disclosed in this document were tested against GPA using procedures described in the following example. In the reporting of the results, the “GPA Rating Table” was used (See Table Section).
Cabbage seedlings grown in 3-inch pots, with 2-3 small (3-5 cm) true leaves, were used as test substrate. The seedlings were infested with 20-50 GPA (wingless adult and nymph stages) one day prior to chemical application. Four pots with individual seedlings were used for each treatment. Test compounds (2 mg) were dissolved in 2 mL of acetone/methanol (1:1) solvent, forming stock solutions of 1000 ppm test compound. The stock solutions were diluted 5× with 0.025% Tween 20 in H2O to obtain the solution at 200 ppm test compound. A hand-held aspirator-type sprayer was used for spraying a solution to both sides of […] leaves until runoff. Reference plants (solvent check) were sprayed with the diluent only containing 20% by volume of acetone/methanol (1:1) solvent. Treated plants were held in a holding room for three days at approximately 25° C. and ambient relative humidity (RH) prior to grading. Evaluation was conducted by counting the number of live aphids per plant under a microscope. Percent Control was measured by using Abbott's correction formula (W. S. Abbott, “A Method of Computing the Effectiveness of an Insecticide” J. Econ. Entomol. 18 (1925), pp. 265-267) as follows. Corrected%Control=100*(X−Y)/X • where • X=No. of live aphids on solvent check plants and • Y=No. of live aphids on treated plants
The results are indicated in the table entitled “Table 5: Biological Results” (See Table Section).

| Compound | melting point | pest or weed control at 50 µg/cm2, 50 µg/cm2 [1] | pest or weed control at 50 µg/cm2, 50 µg/cm2 [2] | pest or weed control at 200 ppm [3] |
| --- | --- | --- | --- | --- |
| CC(C)c1c(F)cccc1NC(=S)NN [Compound I-51] | 158 to 160 °C |  |  |  |
| CC(C)c1ccc(F)cc1NC(=S)NN [Compound I-43] | 133 to 135 °C |  |  |  |
| CC(C)c1ccccc1NC(=S)N/N=C/c1ccc(-c2ncn(-c3ccc4c(c3)OC(F)(F)O4)n2)cc1 [Compound I-36] | 200 °C (dec.) |  |  |  |
| CC(F)(F)c1ccc(-n2cnc(-c3ccc(C=O)cc3)n2)cc1 [Compound I-62] | 139 to 141 °C |  |  |  |
| CC(C)c1cc(F)ccc1NC(=S)NN [Compound I-47] | 163 to 217 °C |  |  |  |
| Cc1cccc(C)c1/N=C(/N/N=C/c1ccc(-c2ncn(-c3ccc(OC(F)(F)F)cc3)n2)cc1)SCc1ocnc1-c1ccccc1 [Compound 15C] |  | 50 to 100% | 50 to 100% | 80 to 100% |
| Cc1cccc(C)c1-n1c(-c2cc(-c3ccc(Cl)cc3)no2)cs/c1=N\N=C\c1ccc(-c2ncn(-c3ccc(OC(F)(F)F)cc3)n2)cc1 [Compound 76C] |  | 50 to 100% | 50 to 100% | 0 to 80% |
| COc1cc(C)c(N2CCCS/C2=N\N=C\c2ccc(-c3ncn(-c4ccc(OC(F)(F)F)cc4)n3)cc2)c(C)c1 [Compound 181C] |  | 50 to 100% | 50 to 100% | 0 to 80% |
| COc1ccc(N2CCCS/C2=N\N=C\c2ccc(-c3ncn(-c4ccc(OC(F)(F)F)cc4)n3)cc2)c(C)c1 [Compound 192C] |  | 50 to 100% | 50 to 100% | 0 to 80% |
| Cc1cccc(C)c1/N=C(/N/N=C/c1ccc(-c2ncn(-c3ccc(OC(F)(F)F)cc3)n2)cc1)SCc1ccc(S(N)(=O)=O)cc1 [Compound 13C] |  | 50 to 100% | 50 to 100% | 0 to 80% |
| Cc1ccccc1N1/C(=N/N=C/c2ccc(-c3ncn(-c4ccc(OC(F)(F)F)cc4)n3)cc2)SCC1C (stereo not drawn) [Compound 154C] |  | 50 to 100% | 50 to 100% | 0 to 80% |
| CC(C)c1ccccc1NC(=S)N/N=C/c1ccc(-c2ncn(-c3ccc(OC(F)(F)C(F)(F)F)cc3)n2)cc1 [Compound I-33] | 214 to 216 °C |  |  |  |
| Cc1cccc(C)c1/N=C(/N/N=C/c1ccc(-c2ncn(-c3ccc(OC(F)(F)F)cc3)n2)cc1)SCC(=O)NCC(NC(=O)OC(C)(C)C)C(=O)O (stereo not drawn) [Compound 59C] |  | 50 to 100% | 50 to 100% | 0 to 80% |
| Cc1cccc(C)c1/N=C(/N/N=C/c1ccc(-c2ncn(-c3ccc(OC(F)(F)F)cc3)n2)cc1)SCc1ccc(OC(F)(F)F)cc1 [Compound 8C] |  | 50 to 100% | 50 to 100% | 0 to 80% |
| CCc1cccc(C)c1N1/C(=N/N=C/c2ccc(-c3ncn(-c4ccc(OC(F)(F)F)cc4)n3)cc2)SCCC1C (stereo not drawn) [Compound 213C] |  | 50 to 100% | 50 to 100% | 0 to 80% |
| Cc1cccc(C)c1/N=C(/N/N=C/c1ccc(-c2ncn(-c3ccc(OC(F)(F)F)cc3)n2)cc1)SC/C=C/Br [Compound 4C] |  | 50 to 100% | 50 to 100% | 0 to 80% |
| COc1ccccc1N1CCS/C1=N\N=C\c1ccc(-c2ncn(-c3ccc(OC(F)(F)F)cc3)n2)cc1 [Compound 140C] |  | 50 to 100% | 50 to 100% | 0 to 80% |
| CCOCC(=O)OCS/C(=N\c1c(C)cc(OC)cc1C)N/N=C/c1ccc(-c2ncn(-c3ccc(OC(F)(F)F)cc3)n2)cc1 [Compound 29C] |  | 50 to 100% | 50 to 100% | 0 to 80% |
| CC(C)Cc1ccccc1N1CCCS/C1=N\N=C\c1ccc(-c2ncn(-c3ccc(OC(F)(F)F)cc3)n2)cc1 [Compound 193C] |  | 50 to 100% | 50 to 100% | 0 to 80% |
| Cc1cccc(C)c1/N=C(/N/N=C/c1ccc(-c2ncn(-c3ccc(OC(F)(F)F)cc3)n2)cc1)SCOC(=O)CNC(=O)OC(C)(C)C [Compound 30C] |  | 50 to 100% | 50 to 100% | 0 to 80% |
| COc1cc(C)c(/N=C(/N/N=C/c2ccc(-c3ncn(-c4ccc(OC(F)(F)F)cc4)n3)cc2)SCOC(=O)CNC(=O)OCc2ccccc2)c(C)c1 [Compound 28C] |  | 50 to 100% | 50 to 100% | 0 to 80% |
| COc1cc(C)c(/N=C(/N/N=C/c2ccc(-c3ncn(-c4ccc(OC(F)(F)F)cc4)n3)cc2)SCOC(=O)C(C)C)c(C)c1 [Compound 27C] |  | 50 to 100% | 50 to 100% | 0 to 80% |
| COc1ccc(N2CCCS/C2=N\N=C\c2ccc(-c3ncn(-c4ccc(OC(F)(F)F)cc4)n3)cc2)cc1 [Compound 202C] |  | 50 to 100% | 50 to 100% | 0 to 80% |
